Assays:
hGPR40 receptor = hGPR40 receptor (Homo sapiens (Human), UniProt O14842); experiment: agonistic activity on hGPR40-CHO stably transfected cells (Fluo-4 / FLIPR); type: cell-based; conditions: for activation at 0.1 µM: 100 nM, relative to linoleic acid well; for EC50: mean ± SD of three determinations
Procedure: Experimental example 1 The agonistic activity of the compounds of the present invention on hGPR40-CHO stably transfected cells
The present invention used the following method to determine the GPR40 agonistic activity of the compounds of the invention:
hGPR40-CHO stably transfected cells were seeded into a 96-well plate at a density of 3×10^4/well, and incubated overnight in a 37° C., 5% CO2 cell incubator; the medium was discarded, 100 μl of HBSS was added to each well, and 100 μl of Fluo-4 dye solution containing Probenecid was added and incubated at 37° C. for 90 min. After the incubation, the Fluo-4 dye solution was sucked out, 100 μl of HBSS buffer was added, and the dye was washed away; 100 μl of HBSS containing Probenecid was added to each well, and incubated at 37° C. for 10 min; different concentrations of drugs were added to each well of the 96-well plate and FLIPR (Molecular Devices) was used for readings according to the parameter setting table. The experimental results were analyzed.

normal mice = experiment: Oral glucose tolerance test (OGTT) in normal mice; type: in vivo, Kunming mice; conditions: for effect on oral glucose tolerance in mice (in words): OGTT in normal mice, 20 mg/kg; for blood glucose level at 15 min / blood glucose level at 0 min / blood glucose level at 30 min / blood glucose level at 60 min / blood glucose level at 120 min: OGTT, 20 mg/kg by gavage, n = 8, in mmol/L (unit assumed); for blood glucose level at 15 min: 15 min after glucose load; for blood glucose level at 0 min: 30 min after dosing, before glucose load; for blood glucose level at 30 min: 30 min after glucose load; for blood glucose level at 60 min: 60 min after glucose load; for blood glucose level at 120 min: 120 min after glucose load
Procedure: Experimental example 2 In vivo hypoglycemic activity of the compounds of the present invention can be determined by using an assay system as described below:
The mice were fasted for 12 hours before experiment and water was taken freely, each group was administrated by gavage, blood was taken from the tail, and the blood glucose level was measured (recorded as −30 min).

[1] = Evaluation of hepatotoxicity: serum ALT, AST and TBIL after 4 weeks of dosing; type: in vivo; conditions: for ALT (IU/L) / AST (IU/L) / TBIL (IU/L): serum, once a day for consecutive 4 weeks, x ± SD, n = 6
Procedure: Experimental example 3 Evaluation of hepatotoxicity of the compounds of the present invention:
The test compounds were administered once a day for consecutive 4 weeks, blood was taken, and the contents of alanine aminotransferase (ALT), aspartate aminotransferase (AST), and total bilirubin (TBIL) were measured.

PPARγ = PPARγ (Homo sapiens (Human), UniProt P37231); experiment: selective experiment of PPARγ agonism; type: cell-based; conditions: selectivity experiment; read-out: EC K (EC50) of PPARγ agonism
GPR120 = GPR120 (Homo sapiens (Human), UniProt Q5NUL3); experiment: selective experiment of GPR120 agonism; type: cell-based; conditions: selectivity experiment; read-out: EC K (EC50) of GPR120 agonism
Sequence of GPR120 (Q5NUL3 whole entry, species assumed): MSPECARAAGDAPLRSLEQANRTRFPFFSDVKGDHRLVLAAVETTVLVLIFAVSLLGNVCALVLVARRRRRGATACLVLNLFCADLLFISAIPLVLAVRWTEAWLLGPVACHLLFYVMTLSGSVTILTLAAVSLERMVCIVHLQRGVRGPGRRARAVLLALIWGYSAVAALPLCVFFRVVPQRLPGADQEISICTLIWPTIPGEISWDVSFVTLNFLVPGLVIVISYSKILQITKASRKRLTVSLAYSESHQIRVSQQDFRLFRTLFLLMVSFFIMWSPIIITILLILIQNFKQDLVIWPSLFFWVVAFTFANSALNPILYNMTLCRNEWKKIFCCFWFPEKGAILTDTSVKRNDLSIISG

Sequence of hGPR40 receptor (O14842 whole entry): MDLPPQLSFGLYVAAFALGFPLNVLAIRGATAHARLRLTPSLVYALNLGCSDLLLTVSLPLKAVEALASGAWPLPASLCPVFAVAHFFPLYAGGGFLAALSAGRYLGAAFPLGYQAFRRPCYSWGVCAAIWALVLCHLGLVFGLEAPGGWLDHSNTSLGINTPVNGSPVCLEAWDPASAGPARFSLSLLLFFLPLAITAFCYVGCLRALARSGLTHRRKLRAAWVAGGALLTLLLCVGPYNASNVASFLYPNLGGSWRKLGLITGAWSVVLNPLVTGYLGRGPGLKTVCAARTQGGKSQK
Sequence of PPARγ (P37231 whole entry, species assumed): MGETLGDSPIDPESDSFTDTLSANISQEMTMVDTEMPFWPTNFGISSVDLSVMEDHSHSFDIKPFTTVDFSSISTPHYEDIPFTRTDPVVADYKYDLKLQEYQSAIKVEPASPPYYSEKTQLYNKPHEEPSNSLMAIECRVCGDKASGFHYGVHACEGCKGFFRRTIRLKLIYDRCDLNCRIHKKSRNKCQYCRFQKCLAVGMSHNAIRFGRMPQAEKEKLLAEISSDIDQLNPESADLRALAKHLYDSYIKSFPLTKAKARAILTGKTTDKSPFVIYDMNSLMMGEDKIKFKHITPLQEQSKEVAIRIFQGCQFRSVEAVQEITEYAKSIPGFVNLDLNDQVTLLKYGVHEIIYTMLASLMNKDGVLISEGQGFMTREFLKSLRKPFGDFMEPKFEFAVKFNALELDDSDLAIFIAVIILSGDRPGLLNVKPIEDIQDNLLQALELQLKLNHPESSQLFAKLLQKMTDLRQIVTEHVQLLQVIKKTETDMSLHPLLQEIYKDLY

SMILES	activation at 0.1 µM (hGPR40 receptor)	melting point	other results
Cc1ccccc1-c1cccc(CNc2ccc(OCC(=O)O)cc2)c1 [Compound I-25, 2-(4-((2′-methyl-[1,1′-biphenyl]-3-methylene)amino)phenoxy)acetic acid]	82%	101 to 104 °C	EC50 (hGPR40 receptor): 17.3 ± 3.3 nM; effect on oral glucose tolerance in mice (in words) (normal mice): significantly improve oral glucose tolerance; blood glucose level at 15 min (normal mice): 8.47 ± 0.45; blood glucose level at 0 min (normal mice): 4.48 ± 0.39; blood glucose level at 30 min (normal mice): 7.23 ± 0.39; blood glucose level at 60 min (normal mice): 5.11 ± 0.29; blood glucose level at 120 min (normal mice): 4.29 ± 0.39; ALT (IU/L) [1]: 51.78 ± 4.5 IU/L; AST (IU/L) [1]: 116.54 ± 8.9 IU/L; TBIL (IU/L) [1]: 2.69 ± 0.4 IU/L
COc1cc(C)c(-c2cccc(CNc3ccc(OCC(=O)O)cc3)c2)c(C)c1 [Compound I-18, 2-(4-((4′-methoxy-2′,6′-dimethyl-[1,1′-biphenyl]-3-methylene)amino)phenoxy)acetic acid]	65%	131 to 134 °C	
CCOCCOc1cc(C)c(-c2cccc(CNc3ccc(OCC(=O)O)c(F)c3)c2)c(C)c1 [Compound I-36, 2-(2-fluoro-4-((4′-(2-ethoxyethoxy)-2′,6′-dimethyl-[1,1′-biphenyl]-3-methylene)amino)phenoxy)acetic acid]	56%	137 to 139 °C	
Cc1cc(OC(C)C)ccc1-c1cccc(CNc2ccc(OCC(=O)O)cc2)c1 [Compound I-23]	62%	132 to 135 °C	
COCOc1cc(C)c(-c2cccc(CNc3ccc(OCC(=O)O)cc3)c2)c(C)c1 [Compound I-39, 2-(4-((4′-(2-methoxymethoxy)-2′,6′-dimethyl-[1,1′-biphenyl]-3-methylene)amino)phenoxy)acetic acid]	60%	132 to 134 °C	
O=C(O)COc1ccc(NCc2cccc(-c3ccccc3OC(F)(F)F)c2)cc1 [Compound I-32, 2-(4-((2′-trifluoromethoxy-[1,1′-biphenyl]-3-methylene)amino)phenoxy)acetic acid]	46%	107 to 110 °C	
CCOCCOc1cc(C)c(-c2cccc(CNc3ccc(OCC(=O)O)cc3)c2)c(C)c1 [Compound I-37, 2-(4-((4′-(2-ethoxyethoxy)-2′,6′-dimethyl-[1,1′-biphenyl]-3-methylene)amino)phenoxy)acetic acid]	50%	133 to 136 °C	
Cc1cc(OC(F)(F)F)ccc1-c1cccc(CNc2ccc(OCC(=O)O)c(F)c2)c1 [Compound I-35, 2-(4-((4′-trifluoromethoxy-2′-methyl-[1,1′-biphenyl]-3-methylene)amino)2-fluorophenoxy)acetic acid]	78%	123 to 125 °C	
O=C(O)COc1ccc(NCc2cccc(-c3ccccc3OC(F)(F)F)c2)cc1F [Compound I-33]	50%	111 to 113 °C	
Cc1noc(C)c1-c1cccc(CNc2ccc(OCC(=O)O)c(F)c2)c1 [Compound I-14, 2-(4-((3-(3,5-dimethylisoxazol-4-yl)benzyl)amino)-2-fluorophenoxy)acetic acid]	54%	72 to 73 °C	
O=C(O)COc1ccc(NCc2cccc(-c3ccccc3F)c2)cc1 [Compound I-26, 2-(4-((2′-fluoro-[1,1′-biphenyl]-3-methylene)amino)phenoxy)acetic acid]	61%	111 to 112 °C	
Cc1cc(OC(C)C)ccc1-c1cccc(CNc2ccc(OCC(=O)O)c(F)c2)c1 [Compound I-22]	65%	134 to 137 °C	
CCOCOc1cc(C)c(-c2cccc(CNc3ccc(OCC(=O)O)c(F)c3)c2)c(C)c1 [Compound I-40, 2-(2-fluoro-4-((4′-(2-ethoxymethoxy)-2′,6′-dimethyl-[1,1′-biphenyl]-3-methylene)amino)phenoxy)acetic acid]	63%	136 to 139 °C	
Cc1ccccc1-c1cccc(CNc2ccc(OCC(=O)O)c(F)c2)c1 [Compound I-3, 2-(4-((2′-methyl-[1,1′-biphenyl]-3-methylene)amino)-2-fluorophenoxy)acetic acid]	87%		EC50 (PPARγ): 83 µM; EC50 (hGPR40 receptor): 4.8 ± 3.5 nM; effect on oral glucose tolerance in mice (in words) (normal mice): significantly improve oral glucose tolerance; blood glucose level at 15 min (normal mice): 7.13 ± 0.29; blood glucose level at 0 min (normal mice): 4.61 ± 0.63; blood glucose level at 30 min (normal mice): 6.94 ± 0.38; blood glucose level at 60 min (normal mice): 5.06 ± 0.23; blood glucose level at 120 min (normal mice): 4.38 ± 0.29; AST, ALT and TBIL compared with STZ (blank) group (in words) ([1]; 4 weeks of dosing): equivalent to the blank group; ALT (IU/L) [1]: 51.23 ± 5.6 IU/L; AST (IU/L) [1]: 103.27 ± 9.98 IU/L; TBIL (IU/L) [1]: 2.55 ± 0.4 IU/L; EC50 (GPR120): 54 µM
COc1ccc(-c2cccc(CNc3ccc(OCC(=O)O)cc3)c2)c(C)c1 [Compound I-21]	75%	121 to 124 °C	
COCOc1cc(C)c(-c2cccc(CNc3ccc(OCC(=O)O)c(F)c3)c2)c(C)c1 [Compound I-38, 2-(2-fluoro-4-((4′-(2-methoxymethoxy)-2′,6′-dimethyl-[1,1′-biphenyl]-3-methylene)amino)phenoxy)acetic acid]	64%	136 to 138 °C	
Cc1cc(OC(F)(F)F)cc(C)c1-c1cccc(CNc2ccc(OCC(=O)O)c(F)c2)c1 [Compound I-34, 2-(4-((4′-trifluoromethoxy-2′,6′-dimethyl-[1,1′-biphenyl]-3-methylene)amino)-2-fluorophenoxy)acetic acid]	64%	127 to 130 °C	
COc1ccccc1-c1cccc(CNc2ccc(OCC(=O)O)c(F)c2)c1 [Compound I-6, 2-(4-((2′-methoxy-[1,1′-biphenyl]-3-methylene)amino)-2-fluorophenoxy)acetic acid]	53%	95 to 96 °C	
N#Cc1ccccc1-c1cccc(CNc2ccc(OCC(=O)O)c(F)c2)c1 [Compound I-7, 2-(4-((2′-Nitrile-[1,1′-biphenyl]-3-methylene)amino)-2-fluorophenoxy)acetic acid]	45%	137 to 140 °C	
Cc1ccc(-c2cccc(CNc3ccc(OCC(=O)O)cc3)c2)c(Cl)c1 [Compound I-27, 2-(4-((2′-chloro-4′-methyl-[1,1′-biphenyl]-3-methylene)amino)phenoxy)acetic acid]	69%	111 to 114 °C	
O=C(O)COc1ccc(NCc2cccc(-c3ccccc3Cl)c2)cc1 [Compound I-24, 2-(4-((2′-chloro-[1,1′-biphenyl]-3-methylene)amino)phenoxy)acetic acid]	80%	124 to 126 °C	EC50 (hGPR40 receptor): 18.6 ± 2.7 nM; effect on oral glucose tolerance in mice (in words) (normal mice): significantly improve oral glucose tolerance; blood glucose level at 15 min (normal mice): 9.22 ± 0.57; blood glucose level at 0 min (normal mice): 4.39 ± 0.34; blood glucose level at 30 min (normal mice): 8.04 ± 0.49; blood glucose level at 60 min (normal mice): 5.29 ± 0.34; blood glucose level at 120 min (normal mice): 4.33 ± 0.33; ALT (IU/L) [1]: 52.68 ± 5.7 IU/L; AST (IU/L) [1]: 116.78 ± 12.4 IU/L; TBIL (IU/L) [1]: 2.56 ± 0.2 IU/L
